Columns and labels:
Assay in all cases: biochemical
[1] = biological target: T1, panel of 374 wild-type kinases (Homo sapiens, UniProt P54753); conditions: read-out: % Enzyme Activity (relative to DMSO controls), EPHB3
T1 construct: purchased Reaction Biology Corporation
T1 sequence (P54753 34-998): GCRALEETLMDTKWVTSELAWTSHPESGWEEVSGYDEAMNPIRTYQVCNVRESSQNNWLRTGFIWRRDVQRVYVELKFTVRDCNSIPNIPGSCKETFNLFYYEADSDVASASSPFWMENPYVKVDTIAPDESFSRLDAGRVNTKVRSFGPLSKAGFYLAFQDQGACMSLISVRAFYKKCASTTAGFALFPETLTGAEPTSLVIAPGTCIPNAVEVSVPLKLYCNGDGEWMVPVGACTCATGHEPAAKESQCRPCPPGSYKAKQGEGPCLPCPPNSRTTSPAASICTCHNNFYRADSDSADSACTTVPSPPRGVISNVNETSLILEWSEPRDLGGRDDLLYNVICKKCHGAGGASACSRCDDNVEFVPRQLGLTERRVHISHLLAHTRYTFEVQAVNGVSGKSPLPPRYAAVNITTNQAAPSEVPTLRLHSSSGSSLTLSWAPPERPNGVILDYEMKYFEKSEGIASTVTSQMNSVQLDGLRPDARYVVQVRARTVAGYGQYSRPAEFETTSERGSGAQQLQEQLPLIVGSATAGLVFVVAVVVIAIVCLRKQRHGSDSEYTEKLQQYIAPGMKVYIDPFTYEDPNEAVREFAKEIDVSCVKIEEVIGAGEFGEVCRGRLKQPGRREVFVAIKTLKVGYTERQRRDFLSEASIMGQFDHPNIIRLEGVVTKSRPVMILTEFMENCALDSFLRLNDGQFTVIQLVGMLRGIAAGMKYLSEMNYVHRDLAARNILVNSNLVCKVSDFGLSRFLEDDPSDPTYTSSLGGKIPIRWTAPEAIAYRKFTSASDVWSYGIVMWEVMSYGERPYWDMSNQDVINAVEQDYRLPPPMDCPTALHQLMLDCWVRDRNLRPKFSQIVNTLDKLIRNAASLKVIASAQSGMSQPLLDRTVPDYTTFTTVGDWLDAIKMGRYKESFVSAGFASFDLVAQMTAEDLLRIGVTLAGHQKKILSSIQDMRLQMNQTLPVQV

[2] = biological target: T2, panel of 374 wild-type kinases (Homo sapiens, UniProt Q15746); conditions: read-out: % Enzyme Activity (relative to DMSO controls), MLCK/MYLK
T2 construct: purchased Reaction Biology Corporation
T2 sequence (Q15746 whole entry): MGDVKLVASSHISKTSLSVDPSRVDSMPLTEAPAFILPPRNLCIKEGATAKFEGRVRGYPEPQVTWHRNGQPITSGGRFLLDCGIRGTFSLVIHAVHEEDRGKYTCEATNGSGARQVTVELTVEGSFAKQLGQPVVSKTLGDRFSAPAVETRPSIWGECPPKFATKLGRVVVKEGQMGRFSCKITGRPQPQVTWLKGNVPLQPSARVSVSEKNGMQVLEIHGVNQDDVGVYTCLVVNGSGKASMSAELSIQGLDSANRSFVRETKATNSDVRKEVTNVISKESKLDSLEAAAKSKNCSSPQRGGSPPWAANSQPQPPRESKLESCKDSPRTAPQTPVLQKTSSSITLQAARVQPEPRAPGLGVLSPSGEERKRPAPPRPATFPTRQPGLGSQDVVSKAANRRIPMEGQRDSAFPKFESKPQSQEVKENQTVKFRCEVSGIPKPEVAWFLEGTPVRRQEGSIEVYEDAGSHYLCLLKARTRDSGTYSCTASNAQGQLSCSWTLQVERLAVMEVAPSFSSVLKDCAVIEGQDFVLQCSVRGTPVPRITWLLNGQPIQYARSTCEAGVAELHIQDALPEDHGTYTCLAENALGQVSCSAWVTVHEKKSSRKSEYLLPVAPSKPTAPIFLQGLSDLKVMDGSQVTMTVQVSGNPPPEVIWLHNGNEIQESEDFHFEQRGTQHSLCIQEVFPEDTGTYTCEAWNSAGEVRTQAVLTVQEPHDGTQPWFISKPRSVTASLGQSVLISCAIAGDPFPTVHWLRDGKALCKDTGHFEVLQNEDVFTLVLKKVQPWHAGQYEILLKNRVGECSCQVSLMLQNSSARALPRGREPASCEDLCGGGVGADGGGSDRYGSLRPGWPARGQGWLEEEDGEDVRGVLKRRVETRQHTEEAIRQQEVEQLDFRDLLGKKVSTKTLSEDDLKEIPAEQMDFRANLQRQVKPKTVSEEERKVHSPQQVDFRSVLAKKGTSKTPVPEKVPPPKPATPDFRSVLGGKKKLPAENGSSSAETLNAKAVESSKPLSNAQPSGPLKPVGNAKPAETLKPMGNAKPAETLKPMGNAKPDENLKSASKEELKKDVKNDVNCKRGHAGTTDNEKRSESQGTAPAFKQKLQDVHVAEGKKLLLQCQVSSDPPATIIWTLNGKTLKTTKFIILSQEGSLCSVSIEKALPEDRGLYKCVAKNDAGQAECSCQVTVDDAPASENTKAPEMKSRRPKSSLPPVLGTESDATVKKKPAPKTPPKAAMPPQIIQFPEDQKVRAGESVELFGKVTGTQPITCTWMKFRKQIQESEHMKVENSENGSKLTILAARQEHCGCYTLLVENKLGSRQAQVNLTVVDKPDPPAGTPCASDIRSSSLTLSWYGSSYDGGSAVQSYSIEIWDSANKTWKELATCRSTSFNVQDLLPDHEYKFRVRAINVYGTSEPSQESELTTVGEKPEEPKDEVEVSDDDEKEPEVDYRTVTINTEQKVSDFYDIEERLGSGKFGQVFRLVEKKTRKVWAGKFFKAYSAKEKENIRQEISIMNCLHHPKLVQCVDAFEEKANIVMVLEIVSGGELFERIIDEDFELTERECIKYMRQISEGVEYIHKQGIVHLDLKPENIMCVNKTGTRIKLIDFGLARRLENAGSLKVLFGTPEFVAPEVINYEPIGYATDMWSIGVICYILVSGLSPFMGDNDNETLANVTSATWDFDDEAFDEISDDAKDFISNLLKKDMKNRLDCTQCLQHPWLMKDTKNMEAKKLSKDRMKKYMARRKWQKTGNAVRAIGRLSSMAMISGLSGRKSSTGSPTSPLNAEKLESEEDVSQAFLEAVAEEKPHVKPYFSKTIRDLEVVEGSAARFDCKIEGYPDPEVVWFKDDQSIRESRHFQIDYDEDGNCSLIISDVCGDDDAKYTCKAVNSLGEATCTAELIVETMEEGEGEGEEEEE

[3] = biological target: T3, panel of 374 wild-type kinases (Homo sapiens, UniProt P51451); conditions: read-out: % Enzyme Activity (relative to DMSO controls), BLK
T3 construct: purchased Reaction Biology Corporation
T3 sequence (P51451 whole entry): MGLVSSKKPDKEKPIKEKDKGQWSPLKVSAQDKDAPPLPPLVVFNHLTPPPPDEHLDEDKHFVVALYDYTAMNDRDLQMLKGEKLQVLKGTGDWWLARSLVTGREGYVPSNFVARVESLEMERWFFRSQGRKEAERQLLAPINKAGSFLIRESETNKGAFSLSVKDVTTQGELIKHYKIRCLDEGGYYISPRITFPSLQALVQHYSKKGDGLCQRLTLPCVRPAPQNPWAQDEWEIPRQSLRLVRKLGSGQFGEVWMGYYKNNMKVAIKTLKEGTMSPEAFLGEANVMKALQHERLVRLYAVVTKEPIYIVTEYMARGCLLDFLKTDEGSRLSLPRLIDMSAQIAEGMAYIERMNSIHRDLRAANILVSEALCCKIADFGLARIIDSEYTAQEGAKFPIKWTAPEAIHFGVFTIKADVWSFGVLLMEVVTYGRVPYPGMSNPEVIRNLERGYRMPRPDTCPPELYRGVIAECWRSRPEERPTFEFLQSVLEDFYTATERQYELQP

[4] = biological target: T4, panel of 374 wild-type kinases (Homo sapiens, UniProt P41240); conditions: read-out: % Enzyme Activity (relative to DMSO controls), CSK
T4 construct: purchased Reaction Biology Corporation
T4 sequence (P41240 whole entry): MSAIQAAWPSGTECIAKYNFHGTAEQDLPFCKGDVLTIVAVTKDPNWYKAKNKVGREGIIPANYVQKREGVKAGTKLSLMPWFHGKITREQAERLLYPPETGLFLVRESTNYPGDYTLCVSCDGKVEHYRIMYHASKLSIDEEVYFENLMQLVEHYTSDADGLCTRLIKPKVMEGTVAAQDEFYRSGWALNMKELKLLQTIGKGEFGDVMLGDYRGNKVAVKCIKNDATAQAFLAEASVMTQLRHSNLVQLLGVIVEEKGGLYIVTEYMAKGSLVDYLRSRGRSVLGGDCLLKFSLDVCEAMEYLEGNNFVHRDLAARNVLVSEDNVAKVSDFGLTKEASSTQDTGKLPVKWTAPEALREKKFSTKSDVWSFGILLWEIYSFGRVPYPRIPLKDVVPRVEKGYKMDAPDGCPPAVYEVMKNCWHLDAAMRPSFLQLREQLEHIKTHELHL

[5] = biological target: T5, panel of 374 wild-type kinases (Homo sapiens, UniProt Q15418); conditions: read-out: % Enzyme Activity (relative to DMSO controls), kinase RSK1
T5 construct: purchased Reaction Biology Corporation
T5 sequence (Q15418 whole entry): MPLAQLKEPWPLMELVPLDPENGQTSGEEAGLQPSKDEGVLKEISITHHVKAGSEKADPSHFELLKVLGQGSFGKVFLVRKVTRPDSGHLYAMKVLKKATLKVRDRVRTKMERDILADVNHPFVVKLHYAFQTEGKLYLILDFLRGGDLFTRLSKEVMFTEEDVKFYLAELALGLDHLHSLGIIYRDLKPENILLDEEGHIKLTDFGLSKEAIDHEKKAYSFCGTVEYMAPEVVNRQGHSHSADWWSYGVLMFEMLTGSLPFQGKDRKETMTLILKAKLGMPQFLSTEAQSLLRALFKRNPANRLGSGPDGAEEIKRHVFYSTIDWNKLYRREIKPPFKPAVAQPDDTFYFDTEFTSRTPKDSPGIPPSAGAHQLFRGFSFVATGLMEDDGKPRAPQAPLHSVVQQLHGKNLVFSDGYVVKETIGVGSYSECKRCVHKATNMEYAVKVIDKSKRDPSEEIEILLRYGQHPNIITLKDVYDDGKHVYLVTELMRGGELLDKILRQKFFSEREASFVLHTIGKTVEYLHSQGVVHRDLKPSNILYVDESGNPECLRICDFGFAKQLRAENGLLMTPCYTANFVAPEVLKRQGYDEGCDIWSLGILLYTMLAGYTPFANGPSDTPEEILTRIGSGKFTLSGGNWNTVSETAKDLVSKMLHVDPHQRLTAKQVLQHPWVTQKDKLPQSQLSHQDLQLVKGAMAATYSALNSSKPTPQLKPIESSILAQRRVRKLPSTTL

[6] = biological target: T6, panel of 374 wild-type kinases (Homo sapiens, UniProt P24723); conditions: read-out: % Enzyme Activity (relative to DMSO controls), kinase PKCeta
T6 construct: purchased Reaction Biology Corporation
T6 sequence (P24723 whole entry): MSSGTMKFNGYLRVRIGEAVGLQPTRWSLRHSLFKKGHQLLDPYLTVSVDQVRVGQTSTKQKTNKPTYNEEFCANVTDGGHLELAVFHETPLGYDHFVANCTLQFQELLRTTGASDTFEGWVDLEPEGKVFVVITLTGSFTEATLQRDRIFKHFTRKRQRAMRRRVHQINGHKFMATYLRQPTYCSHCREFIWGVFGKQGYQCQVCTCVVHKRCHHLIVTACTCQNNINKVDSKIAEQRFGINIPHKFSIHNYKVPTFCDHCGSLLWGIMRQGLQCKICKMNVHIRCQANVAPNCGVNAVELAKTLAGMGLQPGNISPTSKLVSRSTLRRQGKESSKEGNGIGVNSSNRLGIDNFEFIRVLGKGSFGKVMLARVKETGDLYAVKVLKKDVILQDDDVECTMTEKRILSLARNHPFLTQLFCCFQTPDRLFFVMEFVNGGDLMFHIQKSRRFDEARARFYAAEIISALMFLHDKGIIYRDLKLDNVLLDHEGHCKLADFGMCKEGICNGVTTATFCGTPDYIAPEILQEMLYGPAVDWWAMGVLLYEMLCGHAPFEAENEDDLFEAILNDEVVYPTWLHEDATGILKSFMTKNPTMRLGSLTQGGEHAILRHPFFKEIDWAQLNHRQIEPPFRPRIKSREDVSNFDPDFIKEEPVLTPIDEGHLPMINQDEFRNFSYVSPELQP

[7] = biological target: T7, panel of 374 wild-type kinases (Homo sapiens, UniProt P30530); conditions: read-out: % Enzyme Activity (relative to DMSO controls), AXL
T7 construct: purchased Reaction Biology Corporation
T7 sequence (P30530 26-894): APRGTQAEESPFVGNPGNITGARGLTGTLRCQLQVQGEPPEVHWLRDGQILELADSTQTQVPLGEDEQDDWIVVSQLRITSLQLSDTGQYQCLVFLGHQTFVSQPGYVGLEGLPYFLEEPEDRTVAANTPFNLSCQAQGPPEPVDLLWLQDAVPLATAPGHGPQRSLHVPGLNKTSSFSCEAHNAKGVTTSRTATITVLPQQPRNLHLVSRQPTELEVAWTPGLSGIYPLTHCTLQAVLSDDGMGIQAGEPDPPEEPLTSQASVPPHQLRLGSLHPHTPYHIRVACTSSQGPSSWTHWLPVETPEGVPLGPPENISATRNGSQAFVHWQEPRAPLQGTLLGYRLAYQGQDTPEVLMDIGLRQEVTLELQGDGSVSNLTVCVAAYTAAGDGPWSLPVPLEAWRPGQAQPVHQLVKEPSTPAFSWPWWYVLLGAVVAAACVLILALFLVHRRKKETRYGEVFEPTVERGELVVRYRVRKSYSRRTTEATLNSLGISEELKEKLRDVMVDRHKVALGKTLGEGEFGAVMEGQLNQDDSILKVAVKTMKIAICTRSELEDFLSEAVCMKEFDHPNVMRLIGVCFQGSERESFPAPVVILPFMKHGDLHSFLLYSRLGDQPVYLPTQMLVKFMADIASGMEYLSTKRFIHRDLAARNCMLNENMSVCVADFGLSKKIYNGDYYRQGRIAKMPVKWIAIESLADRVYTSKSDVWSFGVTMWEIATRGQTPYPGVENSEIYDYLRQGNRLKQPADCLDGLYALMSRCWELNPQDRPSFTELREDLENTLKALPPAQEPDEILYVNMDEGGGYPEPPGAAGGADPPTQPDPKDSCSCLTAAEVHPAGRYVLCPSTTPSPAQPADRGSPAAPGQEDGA

[8] = biological target: T8, panel of 374 wild-type kinases (Homo sapiens, UniProt Q96PF2); conditions: read-out: % Enzyme Activity (relative to DMSO controls), kinase TSSK2
T8 construct: purchased Reaction Biology Corporation
T8 sequence (Q96PF2 1-358): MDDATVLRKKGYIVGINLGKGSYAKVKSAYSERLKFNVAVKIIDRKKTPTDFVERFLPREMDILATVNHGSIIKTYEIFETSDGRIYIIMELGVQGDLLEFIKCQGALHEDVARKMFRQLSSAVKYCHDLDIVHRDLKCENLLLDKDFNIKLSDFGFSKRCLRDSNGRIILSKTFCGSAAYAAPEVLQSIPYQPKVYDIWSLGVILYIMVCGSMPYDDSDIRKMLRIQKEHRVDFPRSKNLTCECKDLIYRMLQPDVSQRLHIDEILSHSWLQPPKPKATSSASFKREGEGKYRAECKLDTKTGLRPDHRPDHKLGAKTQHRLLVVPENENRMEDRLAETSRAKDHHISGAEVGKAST

[9] = biological target: T9, panel of 374 wild-type kinases (Homo sapiens, UniProt P37023); conditions: read-out: % Enzyme Activity (relative to DMSO controls), ALK1/ACVRL1
T9 construct: purchased Reaction Biology Corporation
T9 sequence (P37023 22-503): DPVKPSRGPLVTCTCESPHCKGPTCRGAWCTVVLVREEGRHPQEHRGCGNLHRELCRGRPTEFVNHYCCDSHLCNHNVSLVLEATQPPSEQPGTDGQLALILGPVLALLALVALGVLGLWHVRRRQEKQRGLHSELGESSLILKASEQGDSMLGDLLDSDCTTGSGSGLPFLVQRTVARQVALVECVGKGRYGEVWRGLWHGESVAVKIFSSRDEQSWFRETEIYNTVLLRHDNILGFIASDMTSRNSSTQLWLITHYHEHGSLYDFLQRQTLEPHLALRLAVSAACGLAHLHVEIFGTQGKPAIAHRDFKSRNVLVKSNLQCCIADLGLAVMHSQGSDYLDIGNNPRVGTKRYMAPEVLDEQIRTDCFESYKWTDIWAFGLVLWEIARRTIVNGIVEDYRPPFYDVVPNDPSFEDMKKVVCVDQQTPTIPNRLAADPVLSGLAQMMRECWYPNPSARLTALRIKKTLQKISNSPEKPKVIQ

SMILES	remaining activity at 5 µM [1]	remaining activity at 5 µM [2]	remaining activity at 5 µM [3]	remaining activity at 5 µM [4]	remaining activity at 5 µM [5]	remaining activity at 5 µM [6]	remaining activity at 5 µM [7]	remaining activity at 5 µM [8]	remaining activity at 5 µM [9]	remaining activity at 10 µM ([1]; 10 uM)	remaining activity at 10 µM ([2]; 10 uM)	remaining activity at 10 µM ([3]; 10 uM)	remaining activity at 10 µM ([4]; 10 uM)	remaining activity at 10 µM ([5]; 10 uM)	remaining activity at 10 µM ([6]; 10 uM)	remaining activity at 10 µM ([7]; 10 uM)	remaining activity at 10 µM ([8]; 10 uM)	remaining activity at 10 µM ([9]; 10 uM)
O=C(Nc1cnn(-c2csc(C(=O)NC3COC3)c2)c1)Nc1ccccc1Cl [Compound 17, 4-(4-(3-(2-chlorophenyl)ureido)-1H-pyrazol-1-yl)-N-(oxetan-3-yl)thiophene-2-carboxamide]	95.6%	97.5%	79.2%	99.2%	92.4%	103%	96.7%	91.5%	107%									
Cc1sc(C(=O)NC2COC2)cc1-n1cc(NC(=O)Nc2c(F)cccc2Cl)cn1 [Compound 27, 4-(4-(3-(2-chloro-6-fluorophenyl)ureido)-1H-pyrazol-1-yl)-5-methyl-N-(oxetan-3-yl)thiophene-2-carboxamide]										97.2%	103%	112%	98%	93.2%	91.6%	86.6%	84.7%	78.7%
O=C(Nc1cnn(-c2csc(C(=O)NC3COC3)c2)c1)Nc1c(F)cccc1Cl [Compound 25, 4-(4-(3-(2-chloro-6-fluorophenyl)ureido)-1H-pyrazol-1-yl)-N-(oxetan-3-yl)thiophene-2-carboxamide]	96.5%	95.9%	96.1%	97.5%	96.3%	99%	73%	95.1%	120%									

Source: patent US20240246942A1, “KINASE INHIBITORS FOR THE TREATMENT OF NEURODEGENERATIVE DISEASES” (priority 2020, published 2024)
